Measured values as given in article PMC5529566, “The cryo-EM structure of gastric H^+,K^+-ATPase with bound BYK99, a high-affinity member of K^+-competitive, imidazo[1,2-a]pyridine inhibitors” (Scientific Reports, 2017).

Tests used:
H^+,K^+-ATPase WT = molecular target: T1, H^+,K^+-ATPase WT (Sus scrofa, UniProt P19156); assay: K^+-competitive inhibition of H^+,K^+-ATPase activity, 96-well ATPase assay, wild-type; type: biochemical, pig
T1 construct: made in house; host or cells: HEK293S GnT1- cells (BacMam baculovirus transduction); permeabilised membrane fractions

H^+,K^+-ATPase D136A = H^+,K^+-ATPase D136A (Sus scrofa, UniProt P19156, D137A); assay: ATPase assay, D136A mutant
H^+,K^+-ATPase D136L = H^+,K^+-ATPase D136L (Sus scrofa, UniProt P19156, D137L); assay: ATPase assay, D136L mutant
H^+,K^+-ATPase D136I = H^+,K^+-ATPase D136I (Sus scrofa, UniProt P19156, D137I); assay: ATPase assay, D136I mutant
H^+,K^+-ATPase D136F = H^+,K^+-ATPase D136F (Sus scrofa, UniProt P19156, D137F); assay: ATPase assay, D136F mutant
H^+,K^+-ATPase D137A = H^+,K^+-ATPase D137A (Sus scrofa, UniProt P19156, D138A); assay: ATPase assay, D137A mutant
H^+,K^+-ATPase D137L = H^+,K^+-ATPase D137L (Sus scrofa, UniProt P19156, D138L); assay: ATPase assay, D137L mutant
H^+,K^+-ATPase D137I = H^+,K^+-ATPase D137I (Sus scrofa, UniProt P19156, D138I); assay: ATPase assay, D137I mutant
H^+,K^+-ATPase D137F = H^+,K^+-ATPase D137F (Sus scrofa, UniProt P19156, D138F); assay: ATPase assay, D137F mutant
H^+,K^+-ATPase N138A = H^+,K^+-ATPase N138A (Sus scrofa, UniProt P19156, N139A); assay: ATPase assay, N138A mutant
H^+,K^+-ATPase N138L = H^+,K^+-ATPase N138L (Sus scrofa, UniProt P19156, N139L); assay: ATPase assay, N138L mutant
H^+,K^+-ATPase N138I = H^+,K^+-ATPase N138I (Sus scrofa, UniProt P19156, N139I); assay: ATPase assay, N138I mutant
H^+,K^+-ATPase N138F = H^+,K^+-ATPase N138F (Sus scrofa, UniProt P19156, N139F); assay: ATPase assay, N138F mutant
H^+,K^+-ATPase L139A = H^+,K^+-ATPase L139A (Sus scrofa, UniProt P19156, L140A); assay: ATPase assay, L139A mutant
H^+,K^+-ATPase L139I = H^+,K^+-ATPase L139I (Sus scrofa, UniProt P19156, L140I); assay: ATPase assay, L139I mutant
H^+,K^+-ATPase L139F = H^+,K^+-ATPase L139F (Sus scrofa, UniProt P19156, L140F); assay: ATPase assay, L139F mutant
H^+,K^+-ATPase Y140A = H^+,K^+-ATPase Y140A (Sus scrofa, UniProt P19156, Y141A); assay: ATPase assay, Y140A mutant
H^+,K^+-ATPase Y140L = H^+,K^+-ATPase Y140L (Sus scrofa, UniProt P19156, Y141L); assay: ATPase assay, Y140L mutant
H^+,K^+-ATPase Y140I = H^+,K^+-ATPase Y140I (Sus scrofa, UniProt P19156, Y141I); assay: ATPase assay, Y140I mutant
H^+,K^+-ATPase Y140F = H^+,K^+-ATPase Y140F (Sus scrofa, UniProt P19156, Y141F); assay: ATPase assay, Y140F mutant
H^+,K^+-ATPase L141I = H^+,K^+-ATPase L141I (Sus scrofa, UniProt P19156, L142I); assay: ATPase assay, L141I mutant
H^+,K^+-ATPase A335G = H^+,K^+-ATPase A335G (Sus scrofa, UniProt P19156, A336G); assay: ATPase assay, A335G mutant
H^+,K^+-ATPase Y799A = H^+,K^+-ATPase Y799A (Sus scrofa, UniProt P19156, Y800A); assay: ATPase assay, Y799A mutant
H^+,K^+-ATPase Y799F = H^+,K^+-ATPase Y799F (Sus scrofa, UniProt P19156, Y800F); assay: ATPase assay, Y799F mutant
H^+,K^+-ATPase = H^+,K^+-ATPase (Sus scrofa, UniProt P19156); assay: Dose-dependent inhibition of H^+,K^+-ATPase activity in the presence of 10 mM KCl
Method: Reactions were initiated by incubating at 37 °C using a thermal cycler, and maintained for 1 to 5 h (depending on the activity). Reactions were terminated by withdrawing 40 μL from the 80 μL reactant, and mixing with 80 μL of stop solution comprising 6% ascorbic acid and 2% ammonium molybdate in 1 N HCl, followed by the addition of 120 μL of 2% sodium arsenate, 2% sodium citrate, and 2% acetic acid. The amount of released inorganic phosphate was determined colorimetrically[39] from absorbance at 850 nm by the microplate reader (TECAN).

Chain of H^+,K^+-ATPase A335G (P19156 whole entry A336G): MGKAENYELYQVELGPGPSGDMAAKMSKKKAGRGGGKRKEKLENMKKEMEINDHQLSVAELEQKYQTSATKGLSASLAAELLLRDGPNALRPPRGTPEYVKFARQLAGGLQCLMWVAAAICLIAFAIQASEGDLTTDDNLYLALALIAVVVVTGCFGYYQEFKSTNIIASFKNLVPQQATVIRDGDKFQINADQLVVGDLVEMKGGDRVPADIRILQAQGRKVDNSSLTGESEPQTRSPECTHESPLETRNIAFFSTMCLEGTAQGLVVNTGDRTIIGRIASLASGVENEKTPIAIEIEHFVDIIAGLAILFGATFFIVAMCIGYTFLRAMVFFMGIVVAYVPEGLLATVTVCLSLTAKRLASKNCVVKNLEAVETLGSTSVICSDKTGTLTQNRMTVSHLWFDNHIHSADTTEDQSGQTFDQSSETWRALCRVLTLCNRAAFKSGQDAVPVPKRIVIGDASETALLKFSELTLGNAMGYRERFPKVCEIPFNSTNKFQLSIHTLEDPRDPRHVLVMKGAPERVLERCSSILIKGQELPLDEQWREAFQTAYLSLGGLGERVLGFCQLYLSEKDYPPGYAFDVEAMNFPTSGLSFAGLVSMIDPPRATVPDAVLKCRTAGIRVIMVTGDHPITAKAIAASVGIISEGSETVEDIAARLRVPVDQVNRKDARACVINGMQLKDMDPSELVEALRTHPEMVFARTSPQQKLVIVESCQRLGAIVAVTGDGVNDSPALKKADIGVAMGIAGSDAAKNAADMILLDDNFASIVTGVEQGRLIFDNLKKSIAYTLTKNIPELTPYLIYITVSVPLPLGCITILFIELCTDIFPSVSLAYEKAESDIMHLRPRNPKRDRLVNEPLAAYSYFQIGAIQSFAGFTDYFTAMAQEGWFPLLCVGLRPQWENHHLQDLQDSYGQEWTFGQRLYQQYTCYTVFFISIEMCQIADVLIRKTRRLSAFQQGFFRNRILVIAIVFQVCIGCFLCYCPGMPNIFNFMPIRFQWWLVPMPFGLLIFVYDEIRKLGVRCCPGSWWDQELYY
Chain of H^+,K^+-ATPase A335G (P18434 whole entry partner): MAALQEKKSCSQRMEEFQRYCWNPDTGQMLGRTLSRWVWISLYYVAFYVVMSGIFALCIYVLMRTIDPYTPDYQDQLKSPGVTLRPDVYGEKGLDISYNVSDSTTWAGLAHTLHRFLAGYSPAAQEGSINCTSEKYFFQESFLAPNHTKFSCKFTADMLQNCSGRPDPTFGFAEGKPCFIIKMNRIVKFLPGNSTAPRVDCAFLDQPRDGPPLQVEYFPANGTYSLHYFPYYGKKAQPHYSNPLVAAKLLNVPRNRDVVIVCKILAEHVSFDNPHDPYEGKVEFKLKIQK
T1 sequence (P19156 whole entry): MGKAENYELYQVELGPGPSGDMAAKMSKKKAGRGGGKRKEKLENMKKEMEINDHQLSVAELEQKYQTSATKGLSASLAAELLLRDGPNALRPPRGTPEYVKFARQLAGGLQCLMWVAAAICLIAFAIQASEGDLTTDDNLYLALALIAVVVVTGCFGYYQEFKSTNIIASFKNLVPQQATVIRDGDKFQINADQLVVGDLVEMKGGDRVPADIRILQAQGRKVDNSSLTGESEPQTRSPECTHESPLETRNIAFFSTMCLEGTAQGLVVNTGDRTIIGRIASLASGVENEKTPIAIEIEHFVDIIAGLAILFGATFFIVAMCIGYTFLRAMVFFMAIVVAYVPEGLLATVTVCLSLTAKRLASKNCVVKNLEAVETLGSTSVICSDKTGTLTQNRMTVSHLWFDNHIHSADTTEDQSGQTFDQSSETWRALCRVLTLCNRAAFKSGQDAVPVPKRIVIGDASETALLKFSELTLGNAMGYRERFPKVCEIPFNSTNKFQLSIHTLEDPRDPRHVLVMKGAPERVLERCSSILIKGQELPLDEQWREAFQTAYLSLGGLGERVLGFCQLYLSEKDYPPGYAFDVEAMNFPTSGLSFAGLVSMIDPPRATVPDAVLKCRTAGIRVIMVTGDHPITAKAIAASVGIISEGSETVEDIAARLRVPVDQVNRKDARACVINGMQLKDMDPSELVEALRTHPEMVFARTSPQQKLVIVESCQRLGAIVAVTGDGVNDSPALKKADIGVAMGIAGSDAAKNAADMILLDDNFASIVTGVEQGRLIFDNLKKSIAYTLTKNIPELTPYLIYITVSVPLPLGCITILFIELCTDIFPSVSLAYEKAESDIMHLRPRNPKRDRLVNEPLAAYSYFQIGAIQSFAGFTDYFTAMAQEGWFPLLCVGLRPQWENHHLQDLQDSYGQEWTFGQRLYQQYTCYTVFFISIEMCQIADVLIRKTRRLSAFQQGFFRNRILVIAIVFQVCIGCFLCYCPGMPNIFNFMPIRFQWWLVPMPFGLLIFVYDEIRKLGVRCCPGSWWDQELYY
T1 sequence (P18434 whole entry partner): as the sequence (P18434 whole entry partner) above
Chain of H^+,K^+-ATPase L141I (P19156 whole entry L142I): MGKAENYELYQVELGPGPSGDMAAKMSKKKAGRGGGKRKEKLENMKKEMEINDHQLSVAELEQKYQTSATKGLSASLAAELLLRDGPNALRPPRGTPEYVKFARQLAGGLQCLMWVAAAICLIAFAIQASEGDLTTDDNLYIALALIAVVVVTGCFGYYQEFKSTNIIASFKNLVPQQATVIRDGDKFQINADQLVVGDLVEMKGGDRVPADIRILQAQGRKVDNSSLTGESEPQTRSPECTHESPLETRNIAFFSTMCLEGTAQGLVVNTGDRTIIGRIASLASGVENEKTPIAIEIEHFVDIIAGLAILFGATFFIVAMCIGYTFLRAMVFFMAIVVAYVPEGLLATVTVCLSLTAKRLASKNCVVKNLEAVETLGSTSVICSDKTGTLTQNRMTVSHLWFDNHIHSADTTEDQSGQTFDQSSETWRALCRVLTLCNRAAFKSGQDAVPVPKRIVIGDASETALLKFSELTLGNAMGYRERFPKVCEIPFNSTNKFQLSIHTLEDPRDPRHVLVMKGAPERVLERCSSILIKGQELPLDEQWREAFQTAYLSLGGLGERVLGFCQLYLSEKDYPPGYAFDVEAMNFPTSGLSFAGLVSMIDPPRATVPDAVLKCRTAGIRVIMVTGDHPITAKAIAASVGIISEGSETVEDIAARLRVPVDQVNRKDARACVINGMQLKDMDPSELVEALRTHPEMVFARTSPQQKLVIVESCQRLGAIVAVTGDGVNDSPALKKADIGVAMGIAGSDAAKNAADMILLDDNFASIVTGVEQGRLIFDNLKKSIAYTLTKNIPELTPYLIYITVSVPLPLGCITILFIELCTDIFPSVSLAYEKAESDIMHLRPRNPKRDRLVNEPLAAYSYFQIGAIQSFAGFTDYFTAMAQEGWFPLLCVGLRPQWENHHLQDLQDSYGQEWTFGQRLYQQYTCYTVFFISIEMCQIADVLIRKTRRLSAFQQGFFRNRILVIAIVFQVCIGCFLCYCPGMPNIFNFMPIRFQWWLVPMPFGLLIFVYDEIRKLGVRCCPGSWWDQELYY
Chain of H^+,K^+-ATPase L141I (P18434 whole entry partner): as the sequence (P18434 whole entry partner) above
Chain of H^+,K^+-ATPase L139A (P19156 whole entry L140A): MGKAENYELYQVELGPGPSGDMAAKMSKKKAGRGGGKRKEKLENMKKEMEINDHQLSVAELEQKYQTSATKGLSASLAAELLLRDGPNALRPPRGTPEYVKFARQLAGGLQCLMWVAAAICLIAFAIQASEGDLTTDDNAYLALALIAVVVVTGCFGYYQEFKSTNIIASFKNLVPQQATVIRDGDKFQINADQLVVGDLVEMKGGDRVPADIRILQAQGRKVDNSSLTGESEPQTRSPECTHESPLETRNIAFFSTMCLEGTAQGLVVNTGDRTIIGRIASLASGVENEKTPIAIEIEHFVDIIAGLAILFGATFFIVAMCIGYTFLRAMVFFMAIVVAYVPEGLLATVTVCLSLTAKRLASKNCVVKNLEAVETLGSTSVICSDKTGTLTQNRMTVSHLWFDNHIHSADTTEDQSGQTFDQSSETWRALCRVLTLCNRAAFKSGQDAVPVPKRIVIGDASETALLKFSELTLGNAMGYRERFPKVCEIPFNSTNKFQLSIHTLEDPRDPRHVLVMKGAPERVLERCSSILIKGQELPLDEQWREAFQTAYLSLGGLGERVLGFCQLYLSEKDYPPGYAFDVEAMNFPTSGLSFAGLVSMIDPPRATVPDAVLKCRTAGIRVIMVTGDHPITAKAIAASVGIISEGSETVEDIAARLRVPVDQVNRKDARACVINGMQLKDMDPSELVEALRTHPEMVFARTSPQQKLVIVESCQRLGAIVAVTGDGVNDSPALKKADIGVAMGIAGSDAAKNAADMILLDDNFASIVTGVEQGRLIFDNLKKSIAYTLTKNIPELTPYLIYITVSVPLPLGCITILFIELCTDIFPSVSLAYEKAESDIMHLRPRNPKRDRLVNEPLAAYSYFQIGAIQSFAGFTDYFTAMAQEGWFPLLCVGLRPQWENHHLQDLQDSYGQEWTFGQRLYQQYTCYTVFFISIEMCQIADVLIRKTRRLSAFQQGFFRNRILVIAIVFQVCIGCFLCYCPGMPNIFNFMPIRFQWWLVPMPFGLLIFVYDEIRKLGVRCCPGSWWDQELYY
Chain of H^+,K^+-ATPase L139A (P18434 whole entry partner): as the sequence (P18434 whole entry partner) above

- -fold increase in K i compared with wild-type (H^+,K^+-ATPase WT; WT): 1.0 fold
- fold lower affinity compared with BYK99 (H^+,K^+-ATPase WT; WT enzyme): 1000 fold
- Ki (H^+,K^+-ATPase WT; WT, global fitting, mean ± SEM): 4.9 ± 0.4 µM
- Ki (H^+,K^+-ATPase D136A): 9 ± 0.5 µM
- -fold increase in K i compared with wild-type (H^+,K^+-ATPase D136A; D136A): 1.8 fold
- Ki (H^+,K^+-ATPase D136L): 3.2 ± 0.2 µM
- -fold increase in K i compared with wild-type (H^+,K^+-ATPase D136L; D136L): 0.7 fold
- Ki (H^+,K^+-ATPase D136I): 6.7 ± 0.4 µM
- -fold increase in K i compared with wild-type (H^+,K^+-ATPase D136I; D136I): 1.4 fold
- Ki (H^+,K^+-ATPase D136F): 4 ± 0.2 µM
- -fold increase in K i compared with wild-type (H^+,K^+-ATPase D136F; D136F): 0.8 fold
- Ki (H^+,K^+-ATPase D137A): 120 ± 30 µM
- -fold increase in K i compared with wild-type (H^+,K^+-ATPase D137A; D137A): 25 fold
- Ki (H^+,K^+-ATPase D137L): > 100 µM
- -fold increase in K i compared with wild-type (H^+,K^+-ATPase D137L; D137L): > 20 fold
- Ki (H^+,K^+-ATPase D137I): 32 ± 5 µM
- -fold increase in K i compared with wild-type (H^+,K^+-ATPase D137I; D137I): 6.5 fold
- Ki (H^+,K^+-ATPase D137F): 110 ± 10 µM
- -fold increase in K i compared with wild-type (H^+,K^+-ATPase D137F; D137F): 22 fold
- Ki (H^+,K^+-ATPase N138A): 6.6 ± 0.8 µM
- -fold increase in K i compared with wild-type (H^+,K^+-ATPase N138A; N138A): 1.3 fold
- Ki (H^+,K^+-ATPase N138L): > 100 µM
- -fold increase in K i compared with wild-type (H^+,K^+-ATPase N138L; N138L): > 20 fold
- Ki (H^+,K^+-ATPase N138I): 62 ± 17 µM
- -fold increase in K i compared with wild-type (H^+,K^+-ATPase N138I; N138I): 13 fold
- Ki (H^+,K^+-ATPase N138F): > 100 µM
- -fold increase in K i compared with wild-type (H^+,K^+-ATPase N138F; N138F): > 20 fold
- Ki (H^+,K^+-ATPase L139A): 5.8 ± 0.6 µM
- -fold increase in K i compared with wild-type (H^+,K^+-ATPase L139A; L139A): 1.2 fold
- Ki (H^+,K^+-ATPase L139I): 1700 ± 200 nM
- -fold increase in K i compared with wild-type (H^+,K^+-ATPase L139I; L139I): 0.3 fold
- Ki (H^+,K^+-ATPase L139F): 8.9 ± 0.7 µM
- -fold increase in K i compared with wild-type (H^+,K^+-ATPase L139F; L139F): 1.8 fold
- Ki (H^+,K^+-ATPase Y140A): 14 ± 2 µM
- -fold increase in K i compared with wild-type (H^+,K^+-ATPase Y140A; Y140A): 2.9 fold
- Ki (H^+,K^+-ATPase Y140L): 6.5 ± 0.6 µM
- -fold increase in K i compared with wild-type (H^+,K^+-ATPase Y140L; Y140L): 1.3 fold
- Ki (H^+,K^+-ATPase Y140I): 4 ± 0.5 µM
- -fold increase in K i compared with wild-type (H^+,K^+-ATPase Y140I; Y140I): 0.8 fold
- Ki (H^+,K^+-ATPase Y140F): 7.6 ± 0.5 µM
- -fold increase in K i compared with wild-type (H^+,K^+-ATPase Y140F; Y140F): 1.6 fold
- Ki (H^+,K^+-ATPase L141I): 3.9 ± 0.8 µM
- -fold increase in K i compared with wild-type (H^+,K^+-ATPase L141I; L141I): 0.8 fold
- Ki (H^+,K^+-ATPase A335G): 78 ± 6 nM
- -fold increase in K i compared with wild-type (H^+,K^+-ATPase A335G; A335G): 0.016 fold
- fold increased affinity (H^+,K^+-ATPase A335G; A335G vs WT): more than 60 fold
- Ki (H^+,K^+-ATPase Y799A): > 200 µM
- -fold increase in K i compared with wild-type (H^+,K^+-ATPase Y799A; Y799A): > 40 fold
- Ki (H^+,K^+-ATPase Y799F): 21 ± 2.7 µM
- -fold increase in K i compared with wild-type (H^+,K^+-ATPase Y799F; Y799F): 4.3 fold
- IC50 (H^+,K^+-ATPase): 29 µM
Structure (SMILES): Cc1nc2c3c(ccn2c1C)[C@@H](O)[C@H](O)[C@@H](c1ccccc1)N3C [BYK73]
